Measurements taken from patent publication US7365231B2, “Compound with antitumor activity and preparation method therefor” (National Taiwan University of Science & Technology, priority 2005, dated 2008).
pIC50: −log10 of the molar value.

Legend:
Assay type in all cases: cell-based
HS 578T = experiment: NCI panel growth inhibition, sulforhodamine B; conditions: Homo sapiens, Breast cancer, drug for last 48 h of 72 h
Description: (§1) Comparison of anticancer activities of the 1,3-substituted adamantane derivatives, 1,3-bis(4-aminophenyl)adamantane (1,3-DPANH2), 1,3-bis(4-(4-aminophenoxy)phenyl)adamantane (1,3-DPAONH2), 1,3-bis(4-(4-amino-3-hydroxy)phenyl)adamantane (1,3-DPA/OH/NH2) and 1,3-bis(4-(4-amino-2-trifluoromethylphenoxy)phenyl)adamantane (1,3-DPA/CF3/NH2) as shown in FIG. 1 were synthesized in the present invention. Those compounds were submitted to the National Cancer Institute for anticancer assay in culture against a standard panel of cell lines. […] To further confirm that the different substituents (CF3 and OH) on the phenyl ring of 1,3-DPAONH2 affect the growth inhibition of cancer cells. […] The transformations of 1,3-DPAONH2 to 1,3-DPA/OH/NH2 led to a remarked enhancement of anticancer activity toward all the tested cancer lines. The role of the OH group at the ortho position of the NH2 on growth inhibition is remarkable. In addition, one compound (1,3-DPA/OH/NH2) was confirmed to have an IC50 of <1 μM against one of the cells (BT-549 breast carcinoma). Comparison of anticancer activities of 1,3-substituted diaminophenyladamantane derivatives, the following order of potency against the tested cancer lines was observed: 1,3-DPA/OH/NH2>1,3-DPAONH2>1,3-DPANH2>1,3-DPA/CF3/NH2.

U251 = experiment: NCI panel growth inhibition, sulforhodamine B; conditions: Homo sapiens, U-251; U251, CNS cancer; drug for last 48 h of 72 h
Description: as §1

NCI-H522 = experiment: NCI panel growth inhibition, sulforhodamine B; conditions: Homo sapiens; NCI-H522, NSCLC; drug for last 48 h of 72 h
Description: as §1

HCT-116 = experiment: NCI panel growth inhibition, sulforhodamine B; conditions: Homo sapiens; HCT-116, Colon cancer; drug for last 48 h of 72 h
Description: as §1

IGROV1 = experiment: NCI panel growth inhibition, sulforhodamine B; conditions: Homo sapiens, IGROV-1; IGROV1, Ovarian cancer; drug for last 48 h of 72 h
Description: as §1

CAKI-1 = experiment: NCI panel growth inhibition, sulforhodamine B; conditions: Homo sapiens; CAKI-1, Renal cancer; drug for last 48 h of 72 h
Description: as §1

ACHN = experiment: NCI panel growth inhibition, sulforhodamine B; conditions: Homo sapiens, Renal cancer, drug for last 48 h of 72 h
Description: as §1

SF-268 = experiment: NCI panel growth inhibition, sulforhodamine B; conditions: Homo sapiens; SF-268, CNS cancer; drug for last 48 h of 72 h
Description: as §1

A549/ATCC = experiment: NCI panel growth inhibition, sulforhodamine B; conditions: Homo sapiens, NSCLC, drug for last 48 h of 72 h
Description: as §1

HL-60(TB) = experiment: NCI panel growth inhibition, sulforhodamine B; conditions: Homo sapiens, Leukemia, drug for last 48 h of 72 h
Description: as §1

M14 = experiment: NCI panel growth inhibition, sulforhodamine B; conditions: Homo sapiens; M14, Melanoma; drug for last 48 h of 72 h
Description: as §1

TK-10 = experiment: NCI panel growth inhibition, sulforhodamine B; conditions: Homo sapiens; TK-10, Renal cancer; drug for last 48 h of 72 h
Description: as §1

UO-31 = experiment: NCI panel growth inhibition, sulforhodamine B; conditions: Homo sapiens; UO-31, Renal cancer; drug for last 48 h of 72 h
Description: as §1

NCI-H226 = experiment: NCI panel growth inhibition, sulforhodamine B; conditions: Homo sapiens; NCI-H226, NSCLC; drug for last 48 h of 72 h
Description: as §1

SNB-19 = experiment: NCI panel growth inhibition, sulforhodamine B; conditions: Homo sapiens; SNB-19, CNS cancer; drug for last 48 h of 72 h
Description: as §1

LOX IMVI = experiment: NCI panel growth inhibition, sulforhodamine B; conditions: Homo sapiens, Melanoma, drug for last 48 h of 72 h
Description: as §1

RPMI-8226 = experiment: NCI panel growth inhibition, sulforhodamine B; conditions: Homo sapiens; RPMI-8226, Leukemia; drug for last 48 h of 72 h
Description: as §1

NCI-H322M = experiment: NCI panel growth inhibition, sulforhodamine B; conditions: Homo sapiens, NSCLC, drug for last 48 h of 72 h
Description: as §1

T-47D = experiment: NCI panel growth inhibition, sulforhodamine B; conditions: Homo sapiens, T47D, Breast cancer, drug for last 48 h of 72 h
Description: as §1

UACC-257 = experiment: NCI panel growth inhibition, sulforhodamine B; conditions: Homo sapiens; UACC-257, Melanoma; drug for last 48 h of 72 h
Description: as §1

MALME-3M = experiment: NCI panel growth inhibition, sulforhodamine B; conditions: Homo sapiens, Melanoma, drug for last 48 h of 72 h
Description: as §1

MDA-MB-231 = experiment: NCI panel growth inhibition, sulforhodamine B; conditions: Homo sapiens; MDA-MB-231, Breast cancer; drug for last 48 h of 72 h
Description: as §1

RXF-393 = experiment: NCI panel growth inhibition, sulforhodamine B; conditions: Homo sapiens; RXF-393, Renal cancer; drug for last 48 h of 72 h
Description: as §1

[1] = system: NCI's human cancer cell lines; experiment: NCI panel growth inhibition, whole panel summary; conditions: in vitro
Description: as §1, with “1,3-DPA/OH/NH2>1,3-DPAONH2>1,3-DPANH2>1,3-DPA/CF3/NH2. […]” for “1,3-DPA/OH/NH2>1,3-DPAONH2>1,3-DPANH2>1,3-DPA/CF3/NH2.”

HT29 = experiment: NCI panel growth inhibition, sulforhodamine B; conditions: Homo sapiens, HT-29; HT29, Colon cancer; drug for last 48 h of 72 h
Description: as §1

SMILES	pIC50 (HS 578T)	pIC50 (U251)	pIC50 (NCI-H522)	pIC50 (HCT-116)	pIC50 (IGROV1)	pIC50 (CAKI-1)	pIC50 (ACHN)	pIC50 (SF-268)	pIC50 (A549/ATCC)	pIC50 (HL-60(TB))	pIC50 (M14)	pIC50 (TK-10)	pIC50 (UO-31)	pIC50 (NCI-H226)	pIC50 (SNB-19)	pIC50 (LOX IMVI)	pIC50 (RPMI-8226)	pIC50 (NCI-H322M)	pIC50 (UACC-257)	pIC50 (MDA-MB-231)	further results
Nc1ccc(Oc2ccc(C34CC5CC(C3)CC(c3ccc(Oc6ccc(N)c(O)c6)cc3)(C5)C4)cc2)cc1O [1,3-DPA/OH/NH2, 1,3-bis-(4-(4-amino-3-hydroxyphenoxy)phenyl)adamantane]	5.79	5.89	5.85	5.86	5.86	5.74	5.79	5.94	5.82	5.67	5.80	5.25	5.71	5.30	5.88	5.79	5.60	5.90	5.65	5.79	pIC50 (T-47D): 5.78; pIC50 (MALME-3M): 5.71; pIC50 (RXF-393): 5.79; growth inhibitory activity against the tested cancer cell lines (in words) [1]: strong growth inhibitory activities
Nc1ccc(Oc2ccc(C3(c4ccc(Oc5ccc(N)cc5)cc4)C4CC5CC(C4)CC3C5)cc2)cc1 [2,2-DPAONH2, 2,2-bis(4-(4-aminophenoxy)phenyl)adamantane]	5.31	5.55	5.37	5.57	5.23	4.95	4.87	5.19	5.47	5.30	5.64	4.84	5.52	4.67	5.00	5.56	5.52	6.74	5.24	4.77	pIC50 (HT29): 5.53; pIC50 (MALME-3M): 4.87
Nc1ccc(C23CC4CC(C2)CC(c2ccc(N)cc2)(C4)C3)cc1 [1,3-DPANH2, 1,3-bis(4-aminophenyl)adamantane]		4.84		4.35	< 4.00	< 4.00	4.39	4.34	< 4.00	4.51	4.43	< 4.00	5.31	4.94	4.42	< 4.00	4.97		4.12	4.71	
Nc1ccc(Oc2ccc(C3(c4ccc(Oc5ccc(N)c(O)c5)cc4)C4CC5CC(C4)CC3C5)cc2)cc1O [DPA, 2,2-bis(4-(4-amino-3-hydroxyphenoxy)phenyl)adamantane]	5.63	5.77	5.80	5.80	5.76	5.63	5.75	5.79	5.71	5.69	5.77	5.67	5.73	5.71	5.52	5.77	5.72	5.85	5.63	5.74	pIC50 (HT29): 5.74; pIC50 (T-47D): 5.38; pIC50 (MALME-3M): 5.69; pIC50 (RXF-393): 5.74; growth inhibitory activity against the tested cancer cell lines (in words) [1]: strong growth inhibitory activities
Nc1ccc(Oc2ccc(C34CC5CC(C3)CC(c3ccc(Oc6ccc(N)cc6C(F)(F)F)cc3)(C5)C4)cc2)c(C(F)(F)F)c1 [1,3-DPA/CF3/NH2, 1,3-bis-(4-(4-amino-2-trifluoromethylphenoxy)phenyl)adamantane]	4.77	4.84	4.84	4.60	4.71	4.55	4.48	4.76	4.72	4.62	4.77	4.79	4.41	4.71	4.65	4.75		4.70	4.73	4.82	pIC50 (HT29): 4.76; pIC50 (T-47D): 4.82; pIC50 (MALME-3M): 4.65; pIC50 (RXF-393): 4.95
Nc1ccc(C2(c3ccc(N)cc3)C3CC4CC(C3)CC2C4)cc1 [2,2-DPANH2, 2,2-bis(4-aminophenyl)adamantane]		4.73	4.81	4.68	5.02	4.82	4.73	5.80		4.72	4.83	4.74	4.74	4.91	4.84	4.79			4.72	4.76	pIC50 (HT29): 7.00; pIC50 (T-47D): 4.84; pIC50 (RXF-393): 5.56
Nc1ccc(Oc2ccc(C34CC5CC(C3)CC(c3ccc(Oc6ccc(N)cc6)cc3)(C5)C4)cc2)cc1 [1,3-DPAONH2, 1,3-bis(4-(4-aminophenoxy)phenyl)adamantane]	4.93	5.10	4.88	5.25	5.58	4.92	4.93	5.25	4.99	4.77	5.02	4.60	4.87	4.63	5.06	5.61	5.38	5.05	4.90	4.77	pIC50 (HT29): 5.15; pIC50 (T-47D): 5.25; pIC50 (MALME-3M): 4.84; pIC50 (RXF-393): 5.11
